In ChEMBL document CHEMBL1139190, “Pyrazolo[1,5-a]pyridine antiherpetics: effects of the C3 substituent on antiviral activity” (Bioorg Med Chem Lett, 2007):

Legend:
Human alphaherpesvirus 1 = experiment: Antiviral activity against HSV1 in Vero SC16 cells by capture hybrid method; format: functional, organism-based; settings: Human alphaherpesvirus 1, Vero
[1] = Cytotoxicity against Vero SC16 cells; format: cell-based; settings: chlorocebus sabaeus
[2] = Therapeutic index, ratio of CC50 for Vero SC16 cells to EC50 for HSV1; format: cell-based; settings: monkey, read-out: Ratio CC50/EC50

SMILES | EC50 (Human alphaherpesvirus 1) [µM] | CC50 [1] [µM] | selectivity ratio [2]
Fc1ccc(-c2nn3c(NC4CCCC4)cccc3c2-c2ccnc(NC3CCCC3)n2)cc1 | 0.26 | > 160 | > 615
Nc1nccc(-c2c(-c3ccc(F)cc3)nn3c(NC4CCCC4)cccc23)n1 | 4.1 | 46 | 11
Fc1ccc(-c2nn3c(NC4CCCC4)cccc3c2-c2ccc3[nH]ccc3c2)cc1 | 3.9 | 20 | 5
Fc1ccc(-c2nn3c(NC4CCCC4)cccc3c2-c2cccnc2)cc1 | 3.4 | > 40 | > 11
Fc1ccc(-c2nn3c(NC4CCCC4)cccc3c2-c2cccnc2NC2CCCC2)cc1 | > 40 | – | –
Fc1ccc(-c2nn3c(NC4CCCC4)cccc3c2-c2ccc(NC3CCCC3)nc2)cc1 | > 40 | – | –
Cc1nc(-c2c(-c3ccc(F)cc3)nn3c(NC4CCCC4)cccc23)co1 | > 40 | – | –
Fc1ccc(-c2nn3c(NC4CCCC4)cccc3c2-c2ccoc2)cc1 | > 10 | – | –
Fc1ccc(-c2nn3c(NC4CCCC4)cccc3c2-c2cc[nH]n2)cc1 | 2.5 | 14 | 6
Fc1ccc(-c2nn3c(NC4CCCC4)cccc3c2-c2ccco2)cc1 | > 10 | – | –
Nc1n[nH]cc1-c1c(-c2ccc(F)cc2)nn2c(NC3CCCC3)cccc12 | 4.9 | 20 | 4
Nc1nc(-c2c(-c3ccc(F)cc3)nn3c(NC4CCCC4)cccc23)c[nH]1 | > 10 | – | –
Fc1ccc(-c2nn3c(NC4CCCC4)cccc3c2-c2c[nH]c(NC3CCCC3)n2)cc1 | 7.9 | 40 | 5
Fc1ccc(-c2nn3c(NC4CCCC4)cccc3c2-c2ccno2)cc1 | > 10 | – | –
Nc1nc(-c2c(-c3ccc(F)cc3)nn3c(NC4CCCC4)cccc23)cs1 | 8.6 | – | –
Fc1ccc(-c2nn3c(NC4CCCC4)cccc3c2-c2ccsc2)cc1 | > 10 | – | –
Fc1ccc(-c2nn3c(NC4CCCC4)cccc3c2-c2cn[nH]c2)cc1 | 4.7 | 10 | 2
Fc1ccc(-c2nn3c(NC4CCCC4)cccc3c2-c2ccnc(NC3CCCC3)c2)cc1 | 0.37 | > 40 | > 108
Fc1ccc(-c2nn3c(NC4CCCC4)cccc3c2-c2cc(NC3CCCC3)ncn2)cc1 | 0.85 | > 40 | > 46
NNc1cc(-c2c(-c3ccc(F)cc3)nn3c(NC4CCCC4)cccc23)ccn1 | 5.7 | 40 | 7
[N-]=[N+]=Nc1cc(-c2c(-c3ccc(F)cc3)nn3c(NC4CCCC4)cccc23)ccn1 | > 40 | – | –
Fc1ccc(-c2nn3c(NC4CCCC4)cccc3c2-c2ccc(F)nc2)cc1 | > 40 | – | –
Fc1ccc(-c2nn3c(NC4CCCC4)cccc3c2-c2ccnnc2)cc1 | > 10 | – | –
Nc1cccc(-c2c(-c3ccc(F)cc3)nn3c(NC4CCCC4)cccc23)c1 | > 10 | – | –
Fc1ccc(-c2nn3c(NC4CCCC4)cccc3c2-c2ccnc(F)c2)cc1 | > 40 | – | –
